pKi: −log10 of the molar value. Where two headings read alike, the source gives them in different places.
Key:
[1] = molecular target: T1, human GLP-1 receptor (hGLP-1R) (Homo sapiens, UniProt P43220); test: [125I]-GLP-1 binding, SPA with membranes of HEK293 cells expressing hGLP-1R; conditions: for Ki: human GLP-1R, geometric mean (SEM, n), read-out: Binding Affinity Ki, nM (SEM, n) hGLP-1R
T1 construct: expressed in transfected cells; crude membranes
Description: Two methods are used for the preparation of crude cell membranes.
Method 1: Frozen cell pellets are lysed on ice in hypotonic buffer containing 50 mM Tris HCl, pH 7.5, and Roche Complete™ Protease Inhibitors with EDTA. […] The homogenate is centrifuged at 4° C. at 1100 × g for 10 minutes. The supernatant is collected and stored on ice while the pellets are resuspended in homogenization buffer and rehomogenized as described above. The homogenate is centrifuged at 1100 × g for 10 minutes. The second supernatant is combined with the first supernatant and centrifuged at 35000 × g for 1 hour at 4° C. The resulting membrane pellet is resuspended in homogenization buffer containing protease inhibitors at approximately 1 to 3 mg/mL, quick frozen in liquid nitrogen and stored as aliquots in a -80° C. freezer until use.
The homogenate is centrifuged at 4° C. at 1800 × g for 15 minutes. The supernatant is collected and stored on ice while the pellets are resuspended in homogenization buffer (without DNAse I) and rehomogenized as described above. The homogenate is centrifuged at 1800 × g for 15 minutes. The second supernatant is combined with the first supernatant and centrifuged an additional time at 1800 × g for 15 minutes. The overall supernatant is then centrifuged at 25000 × g for 30 minutes at 4° C. The resulting membrane pellet is resuspended in homogenization buffer (without DNAse I) containing protease inhibitors at approximately 1 to 3 mg/mL and stored as aliquots in a -80° C. freezer until use.
The human GLP-1 receptor binding assay is performed using an SPA format with WGA beads. The binding buffer contains 25 mM HEPES, pH 7.4, 2.5 mM CaCl2, 1 mM MgCl2, 0.1% (w/v) bacitracin, 0.003% (w/v) TWEEN®-20, and Roche Complete™ Protease Inhibitors without EDTA.
Raw CPM data for concentration curves of peptides, Gcg, GLP-1, or GIP are converted to percent inhibition by subtracting nonspecific binding (binding in the presence of excess unlabeled Gcg, GLP-1, or GIP, respectively) from the individual CPM values and dividing by the total binding signal, also corrected by subtracting nonspecific binding. Data are analyzed using four-parameter (curve maximum, curve minimum, IC50, Hill slope) nonlinear regression routines (Genedata Screener, version 12.0.4, Genedata AG, Basal, Switzerland). […] Values for Ki are reported as the geometric mean, with error expressed as the standard error of the mean (SEM) and n is equal to the number of independent replicates (determined in assays performed on different days). Geometric Means are calculated as follows: […]
The Ki Ratio (Ki for native control peptide/Ki for test compound) at each receptor and each species is calculated. The Ki Ratio is a rapid indication of the apparent affinity of a peptide compared to the native control peptide.
n=⅟x means that only one value out of the total number of replicates (x) is used to express the mean. SEM is only calculated when n=2 or greater non-qualified results exist. Means are expressed as GeoMetric means with the standard error of the mean (SEM) and the number of replicates (n) indicated in parenthesis.

hGCGR = molecular target: T2, hGCGR (Homo sapiens, UniProt P47871); test: Functional cAMP formation (HTRF) in HEK-293 clonal cells expressing hGCGR, 0.1% bovine casein, without or with 1.0% human serum albumin; assay type: cell-based
T2 construct: expressed in transfected cells
T2 sequence (P47871 26-477): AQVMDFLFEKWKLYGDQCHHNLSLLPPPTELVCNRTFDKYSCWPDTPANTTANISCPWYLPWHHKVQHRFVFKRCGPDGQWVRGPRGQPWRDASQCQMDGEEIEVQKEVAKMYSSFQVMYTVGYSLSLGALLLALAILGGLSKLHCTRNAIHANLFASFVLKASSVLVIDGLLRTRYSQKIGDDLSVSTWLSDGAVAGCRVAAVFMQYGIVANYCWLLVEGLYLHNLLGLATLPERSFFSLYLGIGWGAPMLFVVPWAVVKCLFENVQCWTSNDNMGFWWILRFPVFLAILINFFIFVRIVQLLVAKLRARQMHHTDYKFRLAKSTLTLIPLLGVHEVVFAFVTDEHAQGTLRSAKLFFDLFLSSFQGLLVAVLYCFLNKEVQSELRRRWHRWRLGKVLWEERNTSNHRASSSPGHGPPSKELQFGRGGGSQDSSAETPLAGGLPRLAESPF
Summary of the method: (§1)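 Cells were stimulated with peptide for 30 min at 37° C, then intracellular cAMP was measured by competitive HTRF (665/620 nm ratio) and converted to nM using a cAMP standard curve. Relative EC50 and Emax came from four-parameter logistic fits of percent maximal response against peptide concentration.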

hGLP-1R = hGLP-1R (Homo sapiens, UniProt P43220); test: Functional cAMP formation (HTRF) in HEK-293 clonal cells expressing hGLP-1R, 0.1% bovine casein, without or with 1.0% human serum albumin; assay type: cell-based; set-up: expressed in transfected cells; conditions: for EC50: geometric mean; for Emax: percent of maximal response to GLP-1(7-36)NH2, arithmetic mean
hGLP-1R, sequence (P43220 24-463): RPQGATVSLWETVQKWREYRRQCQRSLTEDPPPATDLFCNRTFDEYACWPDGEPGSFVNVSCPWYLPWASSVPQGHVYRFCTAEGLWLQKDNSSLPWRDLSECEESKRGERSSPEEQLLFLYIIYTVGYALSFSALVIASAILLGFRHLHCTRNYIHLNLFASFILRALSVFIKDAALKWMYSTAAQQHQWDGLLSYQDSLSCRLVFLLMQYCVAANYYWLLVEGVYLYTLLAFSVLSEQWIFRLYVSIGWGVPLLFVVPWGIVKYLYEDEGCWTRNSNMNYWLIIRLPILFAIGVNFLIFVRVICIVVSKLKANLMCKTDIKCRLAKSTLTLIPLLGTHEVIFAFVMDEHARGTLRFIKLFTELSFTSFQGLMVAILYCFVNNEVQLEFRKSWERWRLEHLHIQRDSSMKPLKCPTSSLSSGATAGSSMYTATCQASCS
Summary of the method: as §1

hGIPR = molecular target: T3, hGIPR (Homo sapiens, UniProt P48546); test: Functional cAMP formation (HTRF) in HEK-293 clonal cells expressing hGIPR, 0.1% bovine casein, without or with 1.0% human serum albumin; assay type: cell-based; conditions: for EC50: 37° C., geometric mean
T3 construct: expressed in transfected cells
T3 sequence (P48546 22-466): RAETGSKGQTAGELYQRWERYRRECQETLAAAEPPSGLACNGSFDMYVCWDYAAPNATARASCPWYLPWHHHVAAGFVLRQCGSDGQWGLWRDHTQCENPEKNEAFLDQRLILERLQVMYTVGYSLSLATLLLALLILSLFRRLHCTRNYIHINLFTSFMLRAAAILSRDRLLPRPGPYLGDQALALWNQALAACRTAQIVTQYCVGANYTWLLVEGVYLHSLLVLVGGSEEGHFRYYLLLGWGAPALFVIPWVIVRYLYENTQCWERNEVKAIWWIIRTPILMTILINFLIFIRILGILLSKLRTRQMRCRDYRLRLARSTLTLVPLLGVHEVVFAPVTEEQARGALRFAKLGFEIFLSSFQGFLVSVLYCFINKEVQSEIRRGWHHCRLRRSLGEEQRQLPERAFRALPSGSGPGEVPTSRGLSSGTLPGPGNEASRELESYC
Summary of the method: as §1

T1 sequence (P43220 24-463): as the sequence (P43220 24-463) above

SMILES: CCCCCCCCCCCCCCCC(=O)N[C@@H](CCC(=O)NCCOCCOCC(=O)NCCOCCOCC(=O)NCCCC[C@H](NC(=O)[C@H](CCCN)NC(=O)[C@H](CC(=O)O)NC(=O)[C@H](CC(C)C)NC(=O)[C@](C)(CC(C)C)NC(=O)[C@@H](NC(=O)[C@H](CO)NC(=O)[C@H](Cc1ccncc1)NC(=O)[C@H](CC(=O)O)NC(=O)[C@H](CO)NC(=O)[C@@H](NC(=O)[C@](C)(Cc1ccccc1F)NC(=O)[C@@H](NC(=O)CNC(=O)[C@H](CCC(=O)O)NC(=O)C(C)(C)NC(=O)[C@@H](N)Cc1ccc(O)cc1)[C@@H](C)O)[C@@H](C)O)[C@@H](C)CC)C(=O)N[C@@H](C)C(=O)N[C@@H](CCC(N)=O)C(=O)NC(C)(C)C(=O)N[C@@H](CCCCNC(=O)COCCOCCNC(=O)COCCOCCNC(=O)CC[C@H](NC(=O)CCCCCCCCCCCCCCC)C(=O)O)C(=O)N[C@@H](Cc1ccccc1)C(=O)N[C@H](C(=O)N[C@H](CCC(=O)O)C(=O)N[C@@](C)(Cc1ccc(O)cc1)C(=O)N[C@@H](CC(C)C)C(=O)N[C@H](C(=O)N[C@@H](CCC(=O)O)C(=O)NCC(=O)NCC(=O)N1CCC[C@H]1C(=O)N[C@@H](CO)C(=O)N[C@@H](CO)C(=O)NCC(=O)N[C@@H](C)C(=O)N1CCC[C@H]1C(=O)N1CCC[C@H]1C(=O)N1CCC[C@H]1C(=O)N[C@@H](CO)C(N)=O)[C@@H](C)CC)[C@@H](C)CC)C(=O)O [Example 21]
- Ki [1]: 0.246 nM
- EC50 (hGCGR; 0.1% bovine casein and 1.0% human serum albumin, 37° C., geometric mean, read-out: hGCGR EC50, nM (SEM, n)): > 9950 nM
- EC50 (hGCGR; cAMP, incubated at 37° C., 0.1% bovine casein (no human serum albumin), geometric mean, read-out: hGCGR EC50, nM (SEM, n)): > 9950 nM
- EC50 (hGLP-1R; 0.1% bovine casein and 1.0% human serum albumin, 37° C., read-out: hGLP-1R EC50, nM (SEM, n)): 0.806 nM
- EC50 (hGIPR; 0.1% bovine casein and 1.0% human serum albumin, read-out: hGIPR EC50, nM (SEM, n)): 0.302 nM

SMILES: CC[C@H](C)[C@H](NC(=O)[C@H](CC(C)C)NC(=O)[C@](C)(Cc1ccc(O)cc1)NC(=O)[C@H](CCCCNC(=O)COCCOCCNC(=O)CC[C@H](NC(=O)CC[C@H](NC(=O)CC[C@H](NC(=O)CCCCCCCCCOc1ccc(C(=O)O)cc1)C(=O)O)C(=O)O)C(=O)O)NC(=O)[C@@H](NC(=O)[C@H](Cc1ccccc1)NC(=O)[C@H](CCCN)NC(=O)C(C)(C)NC(=O)[C@H](CCC(N)=O)NC(=O)[C@H](C)NC(=O)[C@H](CCC(N)=O)NC(=O)[C@H](CCCN)NC(=O)[C@H](CC(=O)O)NC(=O)[C@H](CC(C)C)NC(=O)[C@](C)(CC(C)C)NC(=O)[C@@H](NC(=O)C(C)(C)NC(=O)[C@H](Cc1ccncc1)NC(=O)[C@H](CC(=O)O)NC(=O)[C@H](CO)NC(=O)[C@@H](NC(=O)[C@](C)(Cc1ccccc1F)NC(=O)[C@@H](NC(=O)CNC(=O)[C@H](CCC(=O)O)NC(=O)C(C)(C)NC(=O)[C@@H](N)Cc1ccc(O)cc1)[C@@H](C)O)[C@@H](C)O)[C@@H](C)CC)[C@@H](C)CC)C(=O)N[C@@H](CCCCNC(=O)COCCOCCNC(=O)CC[C@H](NC(=O)CC[C@H](NC(=O)CC[C@H](NC(=O)CCCCCCCCCOc1ccc(C(=O)O)cc1)C(=O)O)C(=O)O)C(=O)O)C(=O)NCC(=O)NCC(=O)N1CCC[C@H]1C(=O)N[C@@H](CO)C(=O)N[C@@H](CO)C(=O)NCC(=O)N[C@@H](C)C(=O)N1CCC[C@H]1C(=O)N1CCC[C@H]1C(=O)N1CCC[C@H]1C(=O)N[C@@H](CO)C(N)=O [Example 487]
- pKi [1]: 9.66
- EC50 (hGCGR; hGCGR EC50, nM (SEM, n), cAMP, 37° C., 0.1% bovine casein (no human serum albumin), geometric mean): > 9950 nM
- EC50 (hGCGR; hGCGR EC50, nM (SEM, n), cAMP, 37° C., 0.1% bovine casein and 1.0% human serum albumin, geometric mean (SEM, n)): > 9950 nM
- Emax (hGLP-1R; HEK293, read-out: hGLP-1R Emax, % ± SEM, cAMP, 37° C., 0.1% bovine casein): 116%
- EC50 (hGLP-1R; hGLP-1R EC50, nM (SEM, n), cAMP, 37° C., 0.1% bovine casein (no human serum albumin)): 0.199 nM
- Emax (hGIPR; HEK293, read-out: hGIPR Emax, % ± SEM, cAMP, 37° C., 0.1% bovine casein and 1.0% human serum albumin, percent of maximal response to GIP(1-42)NH2): 89.1%
- EC50 (hGIPR; hGIPR EC50, nM (SEM, n), cAMP, 0.1% bovine casein (no human serum albumin)): 0.0161 nM

SMILES: CC[C@H](C)[C@H](NC(=O)[C@H](CC(C)C)NC(=O)[C@](C)(Cc1ccc(O)cc1)NC(=O)[C@H](CCCCNC(=O)CCOCCOCCOCCOCCNC(=O)CC[C@H](NC(=O)CCCCCCCCCCCCC(=O)O)C(=O)O)NC(=O)[C@@H](NC(=O)[C@H](Cc1ccccc1)NC(=O)[C@H](CCCN)NC(=O)C(C)(C)NC(=O)[C@H](CCC(N)=O)NC(=O)[C@H](C)NC(=O)[C@H](CCC(N)=O)NC(=O)[C@H](CCCN)NC(=O)[C@H](CC(=O)O)NC(=O)[C@H](CC(C)C)NC(=O)[C@](C)(CC(C)C)NC(=O)[C@@H](NC(=O)C(C)(C)NC(=O)[C@H](Cc1ccncc1)NC(=O)[C@H](CC(=O)O)NC(=O)[C@H](CO)NC(=O)[C@@H](NC(=O)[C@](C)(Cc1ccccc1F)NC(=O)[C@@H](NC(=O)CNC(=O)[C@H](CCC(=O)O)NC(=O)C(C)(C)NC(=O)[C@@H](N)Cc1ccc(O)cc1)[C@@H](C)O)[C@@H](C)O)[C@@H](C)CC)[C@@H](C)CC)C(=O)N[C@@H](CCCCNC(=O)CCOCCOCCOCCOCCNC(=O)CC[C@H](NC(=O)CCCCCCCCCCCCC(=O)O)C(=O)O)C(=O)NCC(=O)NCC(=O)N1CCC[C@H]1C(=O)N[C@@H](CO)C(=O)N[C@@H](CO)C(=O)NCC(=O)N[C@@H](C)C(=O)N1CCC[C@H]1C(=O)N1CCC[C@H]1C(=O)N1CCC[C@H]1C(=O)N[C@@H](CO)C(N)=O [Example 457]
- Ki [1]: 0.252 nM
- EC50 (hGCGR; cAMP, 37° C., 0.1% bovine casein (no human serum albumin), geometric mean, read-out: hGCGR EC50, nM (SEM, n)): > 9950 nM
- EC50 (hGCGR; cAMP, 37° C., 0.1% bovine casein and 1.0% human serum albumin, geometric mean (SEM, n), read-out: hGCGR EC50, nM (SEM, n)): > 9950 nM
- Emax (hGLP-1R; HEK293, cAMP, 37° C., 0.1% bovine casein, read-out: hGLP-1R Emax, % ± SEM): 119%
- EC50 (hGLP-1R; cAMP, 37° C., 0.1% bovine casein (no human serum albumin), read-out: hGLP-1R EC50, nM (SEM, n)): 0.185 nM
- EC50 (hGIPR; cAMP, 0.1% bovine casein (no human serum albumin), read-out: hGIPR EC50, nM (SEM, n)): 0.0106 nM

Reference: patent publication US20230265151A1, “GIP/GLP1 CO-AGONIST COMPOUNDS” (priority 2020, published 2023)
